22 molecules from patent publication US9605005B2, “Alkynyl alcohols and methods of use” (Genentech, Inc., priority 2013, dated 2017) can be followed below.

Read-outs that look alike come from different tables or passages of the source.

Assay [1] deals with nuclear factor-kappa B (NF-kB)-inducing kinase (NIK) (Homo sapiens (Human), UniProt Q99558). Kind of assay: NIK enzyme inhibition assay (Transcreener ADP, NIK ADP-FP). In kind it is biochemical. As to conditions: purified NIK 0.5 nM, 10 μM ATP, fluorescence polarization; read-out: NIK ADP-FP (Ki μM).
Chain of nuclear factor-kappa B (NF-kB)-inducing kinase (NIK) (Q99558 whole entry): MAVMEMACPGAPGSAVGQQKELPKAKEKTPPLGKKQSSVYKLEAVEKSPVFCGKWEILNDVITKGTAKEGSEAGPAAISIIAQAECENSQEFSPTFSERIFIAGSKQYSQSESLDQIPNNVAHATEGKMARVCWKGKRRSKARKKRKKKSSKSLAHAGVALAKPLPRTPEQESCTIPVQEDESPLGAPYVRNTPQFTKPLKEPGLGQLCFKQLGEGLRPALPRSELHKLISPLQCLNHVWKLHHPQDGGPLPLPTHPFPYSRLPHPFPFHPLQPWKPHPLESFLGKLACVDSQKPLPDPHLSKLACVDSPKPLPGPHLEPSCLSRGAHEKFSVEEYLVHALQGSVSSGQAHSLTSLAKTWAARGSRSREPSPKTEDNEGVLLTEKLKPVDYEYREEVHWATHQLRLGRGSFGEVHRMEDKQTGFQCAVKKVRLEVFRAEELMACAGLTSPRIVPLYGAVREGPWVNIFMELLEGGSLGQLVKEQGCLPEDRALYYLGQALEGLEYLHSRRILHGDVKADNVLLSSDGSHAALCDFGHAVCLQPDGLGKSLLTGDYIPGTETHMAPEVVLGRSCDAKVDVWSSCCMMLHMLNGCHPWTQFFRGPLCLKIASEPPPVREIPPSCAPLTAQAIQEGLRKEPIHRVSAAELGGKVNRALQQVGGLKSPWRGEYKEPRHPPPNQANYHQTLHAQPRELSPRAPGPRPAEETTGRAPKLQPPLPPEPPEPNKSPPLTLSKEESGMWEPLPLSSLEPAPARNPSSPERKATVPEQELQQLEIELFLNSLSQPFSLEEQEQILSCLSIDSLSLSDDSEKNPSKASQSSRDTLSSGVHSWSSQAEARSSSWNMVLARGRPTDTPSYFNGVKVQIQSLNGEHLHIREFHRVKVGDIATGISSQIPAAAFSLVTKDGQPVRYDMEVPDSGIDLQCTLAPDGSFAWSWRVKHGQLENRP
Assay [2] deals with REL-A (p65) nuclear translocation, HeLa cells. Kind of assay: REL-A (p65) nuclear translocation assay in HeLa cells (classical NF-kB signaling, TNF-α stimulated). The assay is classed as cell-based. The note with it: Homo sapiens, 0.5 h. A digest of the protocol: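 HeLa cells were exposed to test compounds at various concentrations (0.2% DMSO final) in medium with 10% fetal bovine serum for 4.5 hours, then stimulated for 30 minutes with 10 ng/mL TNF-α. After fixation in 4% paraformaldehyde, 0.1% Triton X-100 permeabilization and staining with 400 ng/mL anti-REL-A (p65) antibody, Alexa488 secondary and DRAQ5, Opera imaging gave nuclear-to-cytoplasmic signal ratios to calculate IC50.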

For assay [3], the system named is p52 (NF-kB2) nuclear translocation, HeLa cells. Kind of assay: p52 (NF-kB2) nuclear translocation assay in HeLa cells (non-classical NF-kB signaling, anti-lymphotoxin beta receptor antibody stimulated). The assay is classed as cell-based. As to conditions: Homo sapiens, 100 ng/mL anti-lymphotoxin beta receptor antibody for 5 hours, read-out: p52 HeLa Transloc Assay (IC50). The procedure, abridged: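 HeLa cells in 10% FBS medium were treated with compound (0.2% DMSO final) and stimulated with 100 ng/mL anti-lymphotoxin beta receptor antibody for 5 h. Fixed cells were immunostained for p52 and imaged with DRAQ5 nuclear stain. Translocation is the nuclear to cytoplasmic intensity ratio, and IC50 values are in micromolar.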

Setting [4] is: HeLa cells, 10 ng/mL TNF-α for 30 minutes, read-out: REL-A HeLa Transloc Assay (IC50).

As usually defined, the Ki is the dissociation constant of the complex between target and ligand, obtained from inhibition or displacement. The IC50 is the concentration that gives 50% inhibition. Take `COc1cc(C#C[C@]2(O)CCN(C)C2=O)cc(-n2nc(C(N)=O)c3cccnc32)c1` [Compound 73, 1-[3-[2-[(3R)-3-hydroxy-1-methyl-2-oxo-pyrrolidin-3-yl]ethynyl]-5-methoxy-phe-nyl]pyrazolo[3,4-b]pyridine-3-carboxamide]: the inhibition constant (Ki) in assay [1] was determined as 1.05 nM. In addition, the values for the half-maximal inhibitory concentration (IC50) in assay [2] (setting [4]) and in assay [3] were 20 µM and 119 nM, respectively.

As for `CN1CC[C@@](O)(C#Cc2cccc(-n3nc(C(N)=O)c4cc(F)cnc43)c2)C1=O` [Compound 75, 5-fluoro-1-[3-[2-[(3R)-3-hy-droxy-1-methyl-2-oxo-pyrroli-din-3-yl]ethynyl]phenyl] pyrazolo[3,4-b]pyridine-3-carboxamide], in assay [1], the Ki turned out to be 0.24 nM. The IC50 amounted to 20 µM in assay [2] (setting [4]) and 56.9 nM in assay [3].

Turning to `CN1CC[C@@](O)(C#Cc2cccc(-n3nc(C(N)=O)c4cnc(Cl)cc43)c2)C1=O` [Compound 76, 6-chloro-1-[3-[2-[(3R)-3-hy-droxy-1-methyl-2-oxo-pyrroli-din-3-yl]ethynyl]phenyl] pyrazolo[4,3-c]pyridine-3-carboxamide], in assay [1], the inhibitory constant (Ki) came out at 0.05 nM. The concentration for half-maximal inhibition (IC50) in assay [2] (setting [4]) turned out to be 8 µM; in assay [3], 41.2 nM.

Take `Cc1c(Cl)c(C(N)=O)nn1-c1cc(C#C[C@]2(O)CCN(C)C2=O)ccn1` [Compound 78, 4-chloro-1-[4-[2-[(3R)-3-hy-droxy-1-methyl-2-oxo-pyrroli-din-3-yl]ethynyl]-2-pyri-dyl]-5-methyl-pyrazole-3-car-boxamide]: the Ki in assay [1] is 16.8 nM. In addition, the IC50 was found to be 20 µM in assay [2] (setting [4]) and 2710 nM in assay [3].

In the case of `CN1CC[C@@](O)(C#Cc2cccc(-c3nc(C(N)=O)n4cccnc34)c2)C1=O` [Compound 85, 8-[3-[2-[(3R)-3-hydroxy-1-methyl-2-oxo-pyrrolidin-3-yl]ethynyl]phenyl]imidazo[1,5-a]pyrimidine-6-carboxamide], the Ki in assay [1] was determined as 0.05 nM. The figures for the half-maximal inhibitory concentration (IC50) in assay [2] (setting [4]) and in assay [3] were 19.2 µM and 38.6 nM, respectively.

As to `CN1CC[C@@](O)(C#Cc2cccc(-c3nc(C(N)=O)c4cccnn34)c2)C1=O` [Compound 86, 7-[3-[2-[(3R)-3-hydroxy-1-methyl-2-oxo-pyrrolidin-3-yl]ethynyl]phenyl]imidazo[1,5-b]pyridazine-5-carboxamide], the inhibition constant (Ki) in assay [1] is 0.73 nM. In addition, the IC50 in assay [2] (setting [4]) turned out to be 20 µM; in assay [3], 356 nM.

`CN1CC[C@@](O)(C#Cc2cccc(-c3csc(C(N)=O)n3)c2)C1=O` [Compound 89, 4-[3-[2-[(3R)-3-hydroxy-1-methyl-2-oxo-pyrrolidin-3-yl]ethynyl]phenyl]thiazole-2-carboxamide]: the Ki in assay [1] stood at 1.65 nM. The concentration for half-maximal inhibition (IC50) in assay [2] (setting [4]) was above 20 µM; in assay [3], 226 nM.

On to `CN1CC[C@@](O)(C#Cc2cccc(-c3nc(C(N)=O)n4ccc(C#N)cc34)c2)C1=O` [Compound 90, 7-cyano-1-[3-[2-[(3R)-3-hy-droxy-1-methyl-2-oxo-pyrroli-din-3-yl]ethynyl]phenyl] imidazo[1,5-a]pyridine-3-car-boxamide], for which, in assay [1], the inhibition constant Ki stood at 0.05 nM. Also, the IC50 in assay [2] (setting [4]) worked out at 2 µM; in assay [3], 63.4 nM.

With `CN1CC[C@@](O)(C#Cc2cccc(-c3nc(C(N)=O)n4ccc(C(F)(F)F)cc34)c2)C1=O` [Compound 91, 1-[3-[2-[(3R)-3-hydroxy-1-methyl-2-oxo-pyrrolidin-3-yl]ethynyl]phenyl]-7-(trifluoro-methyl)imidazo[1,5-a]pyri-dine-3-carboxamide], the Ki in assay [1] was determined as 0.15 nM. In addition, the half-maximal inhibitory concentration (IC50) in assay [2] (setting [4]) is 20 µM; in assay [3], 18.9 nM.

As for `CN1CC[C@@](O)(C#Cc2cccc(-c3nc(C(N)=O)n4ccncc34)c2)C1=O` [Compound 92, 1-[3-[2-[(3R)-3-hydroxy-1-methyl-2-oxo-pyrrolidin-3-yl]ethynyl]phenyl]imidazo[1,5-a]pyrazine-3-carboxamide], the inhibitory constant (Ki) in assay [1] came out at 0.37 nM. The results for the IC50 in assay [2] (setting [4]) and in assay [3] were 20 µM and 25.9 nM, respectively.

`CN1CC[C@@](O)(C#Cc2cccc(-c3nc(C(N)=O)n4cc(Cl)ccc34)c2)C1=O` [Compound 93, 6-chloro-1-[3-[2-[(3R)-3-hy-droxy-1-methyl-2-oxo-pyrroli-din-3-yl]ethynyl]phenyl] imidazo[1,5-a]pyridine-3-carboxamide]: the inhibitory constant (Ki) in assay [1] turned out to be 0.06 nM. Besides, the IC50 in assay [2] (setting [4]) worked out at 20 µM; in assay [3] it was 15.3 nM.

For the molecule `CN1CC[C@@](O)(C#Cc2cccc(-c3nc(C(N)=O)n4ccc(Cl)cc34)c2)C1=O` [Compound 94, 7-chloro-1-[3-[2-[(3R)-3-hy-droxy-1-methyl-2-oxo-pyrroli-din-3-yl]ethynyl]phenyl] imidazo[1,5-a]pyridine-3-carboxamide], in assay [1], the Ki turned out to be 0.05 nM. Moreover, the IC50 in assay [2] (setting [4]) is 6.32 µM; in assay [3] it was 7.26 nM.

Consider `CN1CC[C@@](O)(C#Cc2cccc(-c3ccn4c(C(N)=O)nc(-c5cccc(C#C[C@]6(O)CCN(C)C6=O)c5)c4c3)c2)C1=O` [Compound 95, 1,7-bis[3-[2-[(3R)-3-hydroxy-1-methyl-2-oxo-pyrrolidin-3-yl]ethynyl]phenyl]imi-dazo[1,5-a]pyridine-3-carbox-amide], for which the Ki in assay [1] came to 0.05 nM. For the same molecule, the half-inhibitory concentration (IC50) in assay [2] (HeLa, read-out: REL-A HeLa Transloc Assay (IC50) [μM]) is 2 µM; in assay [3], 86.4 nM.

Consider `CN1CC[C@@](O)(C#Cc2cccc(-c3nc(C(N)=O)n4ccc(OC5CCC5)cc34)c2)C1=O` [Compound 96, 7-(cyclobutoxy)-1-[3-[2-[(3R)-3-hydroxy-1-methyl-2-oxo-pyrrolidin-3-yl]ethynyl]phenyl]imidazo[1,5-a]pyridine-3-carboxamide], for which the inhibition constant Ki in assay [1] was 0.14 nM. The half-inhibitory concentration (IC50) in assay [2] (setting [4]) amounted to 20 µM; in assay [3] it was 60.3 nM.

Take `COc1ccn2c(C(N)=O)nc(-c3cccc(C#C[C@]4(O)CCN(C)C4=O)c3)c2c1` [Compound 97, 1-[3-[2-[(3R)-3-hydroxy-1-methyl-2-oxo-pyrrolidin-3-yl]ethynyl]phenyl]-7-methoxy-imidazo[1,5-a]pyridine-3-carboxamide]: in assay [1], the Ki amounted to 0.05 nM. For the same molecule, the figures for the IC50 in assay [2] (setting [4]) and in assay [3] were 1 µM and 6.6 nM, respectively.

On to `CN1CC[C@@](O)(C#Cc2cccc(-c3nc(C(N)=O)n4ccc(CN5CCOCC5)cc34)c2)C1=O` [Compound 99, 1-[3-[2-[(3R)-3-hydroxy-1-methyl-2-oxo-pyrrolidin-3-yl]ethynyl]phenyl]-7-(morpho-linomethyl)imidazo[1,5-a]pyridine-3-carboxamide], for which the Ki in assay [1] was 1.52 nM. For the same molecule, the half-inhibitory concentration (IC50) in assay [2] (setting [4]) worked out at 2 µM; in assay [3] it was 231 nM.

As for `CN1CC[C@@](O)(C#Cc2cccc(-c3nc(C(N)=O)n4cc(CN5CCOCC5)ccc34)c2)C1=O` [Compound 100, 1-[3-[2-[(3R)-3-hydroxy-1-methyl-2-oxo-pyrrolidin-3-yl]ethynyl]phenyl]-6-(morpho-linomethyl)imidazo[1,5-a]pyridine-3-carboxamide], the inhibition constant (Ki) in assay [1] was found to be 1.65 nM. Further, the half-inhibitory concentration (IC50) in assay [2] (setting [4]) was determined as 2 µM; in assay [3], 156 nM.

`CN1CC[C@@](O)(C#Cc2cccc(-n3nc(C(N)=O)c4cc(-c5ccn(C)n5)ccc43)c2)C1=O` [Compound 101, 1-[3-[2-[(3R)-3-hydroxy-1-methyl-2-oxo-pyrrolidin-3-yl]ethynyl]phenyl]-5-(1-meth-ylpyrazol-3-yl)indazole-3-carboxamide]: in assay [1], the inhibitory constant (Ki) amounted to 0.06 nM. For the same molecule, the half-inhibitory concentration (IC50) in assay [2] (setting [4]) turned out to be 6.32 µM; in assay [3], 31.2 nM.

For the molecule `CN1CC[C@@](O)(C#Cc2cccc(-n3nc(C(N)=O)c4cc(-c5cnn(C)c5)cnc43)c2)C1=O` [Compound 104, 1-[3-[2-[(3R)-3-hydroxy-1-methyl-2-oxo-pyrrolidin-3-yl]ethynyl]phenyl]-5-(1-meth-ylpyrazol-4-yl)pyrazolo[3,4-b]pyridine-3-carboxamide], the inhibition constant Ki in assay [1] was found to be 0.1 nM. Moreover, the IC50 in assay [2] (setting [4]) stood at 2 µM; in assay [3], 26.7 nM.

For `C[C@@H]1CCc2c1c(C(N)=O)nn2-c1cccc(C#C[C@]2(O)CCN(C)C2=O)c1` [Compound 109, (4R)-1-[3-[2-[(3R)-3-hydroxy-1-methyl-2-oxo-pyrrolidin-3-yl]ethynyl]phenyl]-4-methyl-5,6-dihydro-4H-cyclo-penta[c]pyrazole-3-carbox-amide], the inhibition constant Ki in assay [1] was found to be 9.58 nM. The IC50 in assay [2] (setting [4]) worked out at 20 µM; in assay [3], 209 nM.

Take `C[C@H]1CCc2c1c(C(N)=O)nn2-c1cccc(C#C[C@]2(O)CCN(C)C2=O)c1` [Compound 110, (4S)-1-[3-[2-[(3R)-3-hydroxy-1-methyl-2-oxo-pyrrolidin-3-yl]ethynyl]phenyl]-4-methyl-5,6-dihydro-4H-cyclo-penta[c]pyrazole-3-carbox-amide]: the inhibition constant Ki in assay [1] was found to be 0.55 nM. In addition, the half-maximal inhibitory concentration (IC50) in assay [2] (setting [4]) came out at 20 µM; in assay [3] it was 244 nM.

As for `CN1CC[C@@](O)(C#Cc2cc(C#N)cc(-n3nc(C(N)=O)c4cccnc43)c2)C1=O` [Compound 111, 1-[3-cyano-5-[2-[(3R)-3-hy-droxy-1-methyl-2-oxo-pyrroli-din-3-yl]ethynyl]phenyl] pyrazolo[3,4-b]pyridine-3-carboxamide], the inhibition constant (Ki) in assay [1] amounted to 4.86 nM. Also, the concentration for half-maximal inhibition (IC50) in assay [2] (setting [4]) was 20 µM; in assay [3], 701 nM.
